This test addresses recombinant eIF4E (Homo sapiens (Human), UniProt P06730). The test can be described thus: Fluorescence polarization competition assay for eIF4E binding potency. In short, it runs like this:
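Competitive displacement format: compounds compete with a fluorescent m7GDP tracer (20 nM) for 75 nM recombinant eIF4E. Incubation is 30 min at room temperature, protected from light, with 1% DMSO. Polarization read gives IC50 over eight 3-fold concentrations.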

The mark [1] stands for this setting: fluorescence polarization competition, 75 nM recombinant eIF4E, 20 nM EDA-m7GDP-ATTO-550, IC50 class, read-out: elF4E FP.
Setting [2] is: inhibition of eIF4E/EDA-m7GDP-ATTO-550 binding by 50%, Table 4B calculated values, read-out: IC50.
The mark [3] stands for this setting: inhibition of eIF4E/EDA-m7GDP-ATTO-550 binding, calculated IC50 values, Table 4B, read-out: IC50.

pIC50: −log10 of the molar value. Where two headings read alike, the source gives them in different places. Bounds are passed on as bounds.

Chain of recombinant eIF4E (P06730 whole entry): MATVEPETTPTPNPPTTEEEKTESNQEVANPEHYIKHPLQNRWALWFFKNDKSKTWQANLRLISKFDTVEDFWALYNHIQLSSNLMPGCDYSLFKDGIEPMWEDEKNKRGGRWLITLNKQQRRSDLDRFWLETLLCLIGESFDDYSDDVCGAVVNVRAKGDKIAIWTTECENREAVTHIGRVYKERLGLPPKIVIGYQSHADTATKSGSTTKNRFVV

Turning to `Cc1nc2cc(C(F)(F)F)c(N3CCN(C4CC4)CC3)c(C#N)c2c(=O)n1CCOc1ccc(Cl)cc1-c1ccnc2c(C(=O)NS(C)(=O)=O)csc12` [compound 1179], the pIC50 by setting is: under setting [1], over 7.30; under setting [2], 7.83.
Consider `Cc1nc2cnc(N3CCN(C)C(C(F)(F)F)C3)c(C#N)c2c(=O)n1CCOc1ccc(Cl)cc1-c1ccnc2c(C(=O)O)csc12` (stereo not shown) [compound 1334], for which, under setting [3], the pIC50 was 7.29.
Same read-out and setting: for `Cc1nc2cnc(N(C)C3CCN(CC(C)(F)F)CC3)c(C(N)=O)c2c(=O)n1CC#Cc1ccc(Cl)cc1-c1ccnc2c(C(=O)OC(C)(C)C)csc12` [compound 1960] the value was 4.36.
Still for that read-out and setting: the figure for `CCN(c1ncc2nc(C)n(CC#Cc3ccc(Cl)cc3-c3ccnc4c(C(=O)NS(C)(=O)=O)csc34)c(=O)c2c1C#N)C1CCN(C2COC2)CC1` [compound 1578] is 7.69.
In the case of `Cc1cc(-c2cc(Cl)ccc2OCCn2c(C)nc3cc(C(F)(F)F)c(Oc4cccnc4)c(C#N)c3c2=O)c2scc(C(=O)O)c2n1` [compound 1035], the pIC50 under setting [1] was over 7.30.
For the compound `Cc1nc2cnc(N(C)[C@@H]3[C@@H]4C[C@H]3CN(CC(C)(F)F)C4)c(C#N)c2c(=O)n1CC#Cc1ccc(Cl)cc1-c1ccnc2c(C(=O)O)csc12` [compound 1576], the pIC50 under setting [3] was 7.75.
Consider `O=C(O)c1cccc(-c2cc(Cl)ccc2OCCn2cnc3c(C(F)(F)F)nccc3c2=O)c1` [compound 1993], for which, under setting [3], the pIC50 is 6.39.
Consider `Cc1cc(-c2cc(Cl)ccc2OCCn2c(C)nc3c(-c4ccccc4)nc(N(C)C)c(C#N)c3c2=O)c2scc(C(=O)O)c2n1` [compound 987], for which the pIC50 is, setting by setting: under setting [1], over 7.30; under setting [2], 7.87.
Consider `Cc1nc2cnc(N(C)C3CCN(C4CC(F)(F)C4)CC3)c(C#N)c2c(=O)n1CC#Cc1ccc(Cl)cc1-c1ccnc2c(C(=O)NS(=O)(=O)C3CC3)csc12` [compound 1809], for which the pIC50 under setting [3] was 8.12.
As for `Cc1nc2cc(C#N)c(CN(C)C)c(C#N)c2c(=O)n1CCOc1ccc(Cl)cc1-c1ccnc2c(C(=O)O)csc12` [compound 510], the pIC50 is 6.00 to 7.30 under setting [1] and 7.30 under setting [2].
Taken in the same sequence, the figures for `C=Cc1c(C(=O)O)cccc1-c1cc(Cl)ccc1OCCn1c(C)nc2cc(C(F)(F)F)cc(C#N)c2c1=O` [compound 169] were 6.00 to 7.30 and 6.63.
In the same order, the values of `C#Cc1c(-c2cc(Cl)ccc2OCCn2c(C)nc3cc(C(F)(F)F)cc(C#N)c3c2=O)ccnc1C(=O)O` [compound 58] are 6.00 to 7.30 and 7.30.
As to `Cc1ncc(F)cc1-c1c(CN(C)C)cc2nc(C)n(CCOc3ccc(Cl)cc3-c3ccnc4c(C(=O)O)c(C)sc34)c(=O)c2c1C#N` [compound 1284], under setting [3], the pIC50 was under 6.00.
Same read-out and setting: for `Cc1nc(N2CC3(CN(C)C3)C2)c(C#N)c2c(=O)n(CCOc3ccc(Cl)cc3-c3ccnc4c(C(=O)O)csc34)c(C)nc12` [compound 1265] the value was 7.94.
For the compound `CSCc1cc(F)c2cc(C)n(CCOc3ccc(Cl)cc3-c3ccnc4c(C(=O)O)csc34)c(=O)c2c1C#N` [compound 534], the pIC50 runs as follows: under setting [1], over 7.30; under setting [2], 7.52.
On to `Cc1cc(-c2cc(Cl)ccc2OCCn2c(C)nc3cc(C(F)(F)F)c(-c4ccnc5c4CCN5)c(C#N)c3c2=O)c2scc(C(=O)O)c2n1` [compound 1192], for which the pIC50 was over 7.30 under setting [1] and 7.31 under setting [3].
On to `Cc1nc2cnc(N(C)c3ccncc3)c(C#N)c2c(=O)n1CC#Cc1ccc(Cl)cc1-c1ccnc2c(C(=O)O)csc12` [compound 1569], for which, under setting [3], the pIC50 was 7.71.
Regarding `Cc1cc(-c2cc(Cl)ccc2OCCn2c(C)nc3cnc(N(C)C)c(C#N)c3c2=O)c2scc(C(=O)O)c2n1` [compound 791], the pIC50 is over 7.30 under setting [1] and 8.44 under setting [2].
In the same order, the values of `Cc1nc2ccc(S(=O)(=O)N3CCCC3)c(C#N)c2c(=O)n1CCOc1ccc(Cl)cc1-c1ccnc2c(C(=O)O)csc12` [compound 249] are over 7.30 and 7.70.
Taken in the same sequence, the figures for `N#Cc1c(C(F)(F)F)ccc2ncn(CCOc3ccc(Cl)cc3-c3cccc(C(=O)O)c3)c(=O)c12` [compound 133] were 6.00 to 7.30 and 7.18.
In the same order, the values of `Cc1cc(-c2c(CF)cc3nc(C)n(CCOc4ccc(Cl)cc4-c4cc(C)nc5c(C(=O)O)csc45)c(=O)c3c2C#N)cc(C)n1` [compound 933] are 6.00 to 7.30 and 6.91.
Regarding `Cc1cc(-c2cc(Cl)ccc2OCCn2c(C)nc3cnc(N4CCc5ccccc54)c(C#N)c3c2=O)c2scc(C(=O)O)c2n1` [compound 982], the pIC50 is, setting by setting: under setting [1], over 7.30; under setting [2], 7.69.
In the same order, the values of `Cc1nc2cc(C(F)(F)F)cc(C#N)c2c(=O)n1CCOc1ccc(Cl)cc1-c1cccc(C(=O)O)c1C#N` [compound 168] are over 7.30 and 7.43.
Taken in the same sequence, the figures for `Cc1cc(-c2cc(Cl)ccc2OCCn2c(C)nc3cc(C(F)(F)F)c(-c4ccncc4)nc3c2=O)c2scc(C(=O)O)c2n1` [compound 464] were over 7.30 and 7.67.
In the same order, the values of `Cc1nc2cc(C(F)(F)F)c(Cl)c(C#N)c2c(=O)n1CC#Cc1ccc(Cl)cc1-c1ccnc2c(C(=O)O)csc12` [compound 554] are over 7.30 and 7.50.
Consider `Cc1nc2cc(C(F)(F)F)c(N3CCN(C)CC3)c(C#N)c2c(=O)n1CCOc1ccc(Cl)cc1-c1ccnc2cc(Cl)sc12` [compound 1246], for which the pIC50 runs as follows: under setting [1], 6.00 to 7.30; under setting [3], 6.97.
With `Cc1cc(-c2nc3c(=O)n(CCOc4ccc(Cl)cc4-c4cc(C)nc5c(C(=O)O)csc45)c(C)nc3cc2C(F)(F)F)ccn1` [compound 463], the pIC50 was over 7.30 under setting [1] and 8.05 under setting [2].
In the same order, the values of `Cc1nc2cc(C(F)(F)F)c(CC3CN(CC(F)(F)F)C3)c(C#N)c2c(=O)n1CCOc1ccc(Cl)cc1-c1ccnc2c(C(=O)O)csc12` [compound 494] are 6.00 to 7.30 and 7.07.
Taken in the same sequence, the figures for `Cc1nc2cncc(OCCN(C)C)c2c(=O)n1CCOc1ccc(Cl)cc1-c1ccnc2c(C(=O)O)csc12` [compound 841] were 6.00 to 7.30 and under 6.00.
In the same order, the values of `N#Cc1cn(CCOc2ccc(Cl)cc2-c2ccnc3c(C(=O)O)csc23)c2c(=O)[nH]c(Nc3ccccc3)nc12` [compound 175] are over 7.30 and 7.69.
On to `Cc1cc(-c2cc(Cl)ccc2OCCn2c(C)nc3cc(C(F)(F)F)c(C(C)N(C)C)c(C#N)c3c2=O)c2scc(C(=O)O)c2n1` (stereo not shown) [compound 711], for which the pIC50 is 6.00 to 7.30 under setting [1] and 7.11 under setting [2].
For `CCN(CC)S(=O)(=O)c1ccc2nc(C)n(CCOc3ccc(Cl)cc3-c3ccnc4c(C(=O)O)csc34)c(=O)c2c1C#N` [compound 250], the pIC50 is, setting by setting: under setting [1], over 7.30; under setting [2], 7.36.
In the same order, the values of `Cc1nc2cc(C(F)(F)F)cc(C#N)c2c(=O)n1CCOc1ccc(Cl)cc1-c1cnnc2c(C(=O)O)csc12` [compound 314] are over 7.30 and 7.37.
Regarding `CCc1ncc(-c2c(C(F)(F)F)cc3nc(C)n(CCOc4ccc(Cl)cc4-c4cc(C)nc5c(C(=O)O)csc45)c(=O)c3c2C#N)cc1F` [compound 1911], the pIC50 under setting [3] was 8.39.
On the same count and under the same terms, for `Cc1nc2cc(S(C)(=O)=O)c(N3CCN(C)CC3)c(C#N)c2c(=O)n1CCOc1ccc(Cl)cc1-c1ccnc2c(C(=O)O)csc12` [compound 1296] the value was 7.57.
Same read-out and setting: the figure for `Cc1nc2cnc(N3CCC34CN(CC(F)F)C4)c(C#N)c2c(=O)n1CC#Cc1ccc(Cl)cc1-c1ccnc2c(C(=O)O)csc12` [compound 1499] is 7.56.
Turning to `Cc1nc2c(N3CCN(C)CC3(C)C)ncc(C#N)c2c(=O)n1CCOc1ccc(Cl)cc1-c1ccnc2c(C(=O)O)csc12` [compound 816], the pIC50 by setting is: under setting [1], over 7.30; under setting [2], 8.16.
With `Cc1nc2cc(C(F)(F)F)c(CN(C)C)c(C#N)c2c(=O)n1CCOc1ccc(Cl)cc1-c1ccnc2c(C(=O)O)csc12` [compound 261], the pIC50 under setting [1] is over 7.30 and the pIC50 under setting [2] is 7.38.
In the same order, the values of `Cc1cc(-c2cc(Cl)ccc2OCCn2c(C)nc3ccc(OC(C)C)c(C#N)c3c2=O)c2scc(C(=O)O)c2n1` [compound 371] are over 7.30 and 7.70.
On to `N#Cc1cccc2ncn(CCOc3ccc(Cl)cc3-c3cccc(C(=O)O)c3)c(=O)c12` [compound 73], for which the pIC50 by setting is: under setting [1], 6.00 to 7.30; under setting [2], 7.08.
On to `Cc1nc2cnc(N3CCN(C4(CCF)CC4)CC3)c(C#N)c2c(=O)n1CCOc1ccc(Cl)cc1-c1ccnc2c(C(=O)O)csc12` [compound 1425], for which the pIC50 under setting [3] is 7.89.
`Cc1nc(N2CCN(CC(F)(F)F)CC2)c(C#N)c2c(=O)n(CCOc3ccc(Cl)cc3-c3ccnc4c(C(=O)O)csc34)c(C)nc12` [compound 886]: the pIC50 is over 7.30 under setting [1] and 7.98 under setting [2].
For `Cc1nc2cnc(N(C)C3CCN([C@H]4C[C@H](OC(F)F)C4)CC3)c(C#N)c2c(=O)n1CC#Cc1ccc(Cl)cc1-c1ccnc2c(C(=O)NS(C)(=O)=O)csc12` [compound 1761], under setting [3], the pIC50 is 8.25.
Turning to `Cc1cc(-c2cc(Cl)ccc2OCCn2c(C)nc3cc(C(F)(F)F)c(CN4CC5CCC(C4)N5C)c(C#N)c3c2=O)c2scc(C(=O)O)c2n1` [compound 740], the pIC50 reads like this: under setting [1], over 7.30; under setting [2], 7.41.
For the compound `Cc1nc2cncc(C#N)c2c(=O)n1CCOc1ccc(Cl)cc1-c1cccc(P(=O)(O)O)c1` [150FA], the pIC50 under setting [2] was 7.20.
In the case of `Cc1cc(-c2cc(Cl)ccc2OCCn2c(C)nc3cnc(-c4ccccc4)c(C#N)c3c2=O)c2scc(C(=O)O)c2n1` [compound 1382], the pIC50 under setting [3] was 7.67.
Still for that read-out and setting: the figure for `CCOP(=O)(OCC)c1csc2c(-c3cc(Cl)ccc3OCCn3c(C)nc4cc(C(F)(F)F)c(N5CCN(C6CC6)CC5)c(C#N)c4c3=O)ccnc12` [compound 1614] is 7.50.

The values are drawn from patent US11286268B1, “EIF4E-inhibiting compounds and methods” (EFFECTOR THERAPEUTICS, INC., priority 2019, dated 2022).
